# Laboratory results published in ChEMBL document CHEMBL1143446, “Azaflavones compared to flavones as ligands to the benzodiazepine binding site of brain GABA(A) receptors” (Bioorg Med Chem Lett, 2008).
# Experiments:
# [1] = Displacement of [3H]flumazenil from GABAA in rat cortical tissue
# [2] = organism: Rattus norvegicus; experiment: Selectivity ratio of Ki for rat GABAA alpha-2-beta-3-gamma-2 receptor to Ki for GABAA alpha-1-beta-3-gamma-2 receptor
# [3] = organism: Rattus norvegicus; experiment: Selectivity ratio of Ki for rat GABAA alpha-3-beta-3-gamma-2 receptor to Ki for GABAA alpha-1-beta-3-gamma-2 receptor
# [4] = biological target: Gamma-aminobutyric acid receptor subunit alpha-3 (Rattus norvegicus, UniProt P18508+P20236+P63079); experiment: Displacement of [3H]flumazenil in rat GABAA alpha-3-beta-3-gamma-2 receptor expressed in HEK293 cells; type: cell-based
# [5] = biological target: GABA-A receptor; alpha-1/beta-3/gamma-2 (Rattus norvegicus); experiment: Displacement of [3H]flumazenil in rat GABAA alpha-1-beta-3-gamma-2 receptor expressed in HEK293 cells
# [6] = biological target: GABA-A receptor; alpha-2/beta-3/gamma-2 (Rattus norvegicus); experiment: Displacement of [3H]flumazenil in rat GABAA alpha-2-beta-3-gamma-2 receptor expressed in HEK293 cells
# [7] = biological target: GABA A receptor alpha-5/beta-3/gamma-2 (Rattus norvegicus, UniProt P18508+P19969+P63079); experiment: Displacement of [3H]flumazenil in rat GABAA alpha-5-beta-3-gamma-2 receptor expressed in HEK293 cells; type: cell-based
# Chain of GABA A receptor alpha-5/beta-3/gamma-2 (P18508 whole entry): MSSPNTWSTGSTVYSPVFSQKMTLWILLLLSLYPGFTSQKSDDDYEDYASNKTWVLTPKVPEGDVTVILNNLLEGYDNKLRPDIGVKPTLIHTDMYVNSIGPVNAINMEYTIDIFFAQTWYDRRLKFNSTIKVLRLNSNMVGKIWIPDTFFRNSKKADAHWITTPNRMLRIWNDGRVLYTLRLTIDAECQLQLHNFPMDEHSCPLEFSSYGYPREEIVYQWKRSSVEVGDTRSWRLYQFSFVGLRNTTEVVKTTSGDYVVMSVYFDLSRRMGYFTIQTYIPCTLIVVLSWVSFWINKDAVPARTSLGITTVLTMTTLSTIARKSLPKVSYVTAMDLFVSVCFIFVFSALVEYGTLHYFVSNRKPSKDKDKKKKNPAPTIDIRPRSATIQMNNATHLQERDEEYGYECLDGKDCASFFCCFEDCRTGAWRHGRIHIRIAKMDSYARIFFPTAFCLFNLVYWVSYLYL
# Chain of GABA A receptor alpha-5/beta-3/gamma-2 (P19969 whole entry): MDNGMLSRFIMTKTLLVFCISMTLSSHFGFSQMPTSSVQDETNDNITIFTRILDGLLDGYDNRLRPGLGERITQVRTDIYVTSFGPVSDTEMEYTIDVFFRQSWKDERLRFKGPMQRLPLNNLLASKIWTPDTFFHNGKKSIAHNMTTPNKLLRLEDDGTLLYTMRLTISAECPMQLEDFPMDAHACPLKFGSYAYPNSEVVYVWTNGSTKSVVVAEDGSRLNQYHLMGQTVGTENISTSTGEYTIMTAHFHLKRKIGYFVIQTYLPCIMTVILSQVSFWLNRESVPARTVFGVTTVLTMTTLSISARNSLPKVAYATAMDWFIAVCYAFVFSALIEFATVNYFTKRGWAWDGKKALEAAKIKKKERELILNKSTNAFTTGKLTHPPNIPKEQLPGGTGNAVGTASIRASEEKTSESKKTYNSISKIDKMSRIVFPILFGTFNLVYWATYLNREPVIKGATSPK
# Chain of GABA A receptor alpha-5/beta-3/gamma-2 (P63079 whole entry): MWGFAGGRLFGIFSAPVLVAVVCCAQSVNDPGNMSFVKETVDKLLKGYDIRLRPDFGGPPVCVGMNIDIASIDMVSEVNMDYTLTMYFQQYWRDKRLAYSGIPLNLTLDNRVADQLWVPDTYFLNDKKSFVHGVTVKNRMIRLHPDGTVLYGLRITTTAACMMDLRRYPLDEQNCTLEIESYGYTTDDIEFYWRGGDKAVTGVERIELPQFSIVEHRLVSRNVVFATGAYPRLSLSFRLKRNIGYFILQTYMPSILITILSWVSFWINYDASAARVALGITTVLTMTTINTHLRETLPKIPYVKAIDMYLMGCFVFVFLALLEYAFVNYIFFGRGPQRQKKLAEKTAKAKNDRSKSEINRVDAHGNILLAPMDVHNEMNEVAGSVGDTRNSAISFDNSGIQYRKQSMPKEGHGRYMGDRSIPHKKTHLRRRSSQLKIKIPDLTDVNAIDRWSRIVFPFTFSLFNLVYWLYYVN
# Chain of Gamma-aminobutyric acid receptor subunit alpha-3 (P20236 whole entry, one chain of several): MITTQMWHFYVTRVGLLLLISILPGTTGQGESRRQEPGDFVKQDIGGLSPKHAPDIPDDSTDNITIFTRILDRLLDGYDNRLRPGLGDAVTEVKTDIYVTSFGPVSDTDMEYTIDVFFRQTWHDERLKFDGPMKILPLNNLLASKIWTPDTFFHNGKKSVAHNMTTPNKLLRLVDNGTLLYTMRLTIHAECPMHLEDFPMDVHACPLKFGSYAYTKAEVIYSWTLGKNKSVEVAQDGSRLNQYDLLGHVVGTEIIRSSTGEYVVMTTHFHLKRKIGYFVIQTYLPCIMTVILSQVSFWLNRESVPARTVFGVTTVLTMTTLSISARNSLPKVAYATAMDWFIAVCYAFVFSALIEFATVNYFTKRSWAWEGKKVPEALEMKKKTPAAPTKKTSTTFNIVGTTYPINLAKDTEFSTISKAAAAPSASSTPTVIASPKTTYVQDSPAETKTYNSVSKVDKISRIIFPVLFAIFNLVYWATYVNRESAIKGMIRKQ
Structure (SMILES),Ki [1],Selectivity ratio [2],Selectivity ratio [3],Ki [4],Ki [5],Ki [6],Ki [7]
Cc1ccc2nc(-c3cc(Cc4ccccc4)ccc3O)cc(N3CCOCC3)c2c1,400 nM,–,–,–,–,–,–
Cc1ccc2c(c1)c(=O)cc(-c1cc(Br)ccc1O)n2C,1100 nM,5,8,–,–,–,–
Cc1ccc2nc(-c3cc(Br)ccc3O)cc(O)c2c1,–,–,–,99 nM,39 nM,120 nM,–
COc1ccc(Br)cc1-c1cc(=O)c2cc(C)ccc2[nH]1,730 nM,–,–,–,–,–,–
Cc1ccc2nc(-c3cc(Br)ccc3O)cc(N3CCOCC3)c2c1,840 nM,–,–,–,–,–,–
COc1ccc(Br)cc1-c1cc(=O)c2cc(C)ccc2o1,> 1500 nM,–,–,–,–,–,–
CCc1ccc2[nH]c(-c3ccccc3)cc(=O)c2c1,1200 nM,–,–,–,–,–,–

# Further molecules by falling Ki [1], results first:
Ki [1],Selectivity ratio [2],Selectivity ratio [3],Ki [4],Ki [5],Ki [6],Ki [7],Structure (SMILES)
180 nM,–,–,–,–,–,–,CCc1ccc2oc(-c3ccccc3)cc(=O)c2c1
22 nM,5,8,–,–,–,–,Cc1ccc2[nH]c(-c3cc(Br)ccc3O)cc(=O)c2c1
2 nM,5,8,31 nM,1.2 nM,18 nM,7.3 nM,Cc1ccc2[nH]c(-c3cc(Cc4ccccc4)ccc3O)cc(=O)c2c1
0.9 nM,5,8,–,–,–,–,Cc1ccc2oc(-c3cc(Br)ccc3O)cc(=O)c2c1
0.6 nM,–,–,11 nM,0.8 nM,19 nM,2.4 nM,Cc1ccc2oc(-c3cc(Cc4ccccc4)ccc3O)cc(=O)c2c1
